From patent publication US10390536B2, “Methods, compounds and compositions for repelling insects and/or arachnids” (National Center for Scientific Research “Demokritos”, priority 2013, dated 2019)

Experiments:
Type in all cases: in vivo
[1] = system: Anopheles gambiae (Giles) ss strain 16CSS female mosquitoes; assay: warm body repellence assay (mosquito landings); conditions: for median repellency (%) at 20 nmol/cm2: Anopheles gambiae, 2 min, 20 nmole per cm^2, read-out: Median Repellency (%)
Method: To test the behavior of female mosquitoes to an essential oil containing OBP binding components, a previously described repellence assay [Kröber et al. (2010). An In Vitro Assay for Testing Mosquito Repellents Employing a Warm Body and Carbon Dioxide as a Behavioral Activator. Journal of the American Mosquito Control Association 26(4) 381-386] was conducted that measures the number of mosquito landings on a warm surface onto which an essential oil containing at least one candidate compound was applied.
To conduct a repellency assay, a selected essential oil or ethanol negative control was applied to a warm body at a dose of about 3.8 μg/cm^2 and allowed to dry for 40 seconds in order to allow evaporation of the solvent before introduction into the test cage with mosquitoes. As positive control for repellence, DEET dissolved in ethanol was applied to the warm body at the same dose. The treated warm body in conjunction with a pulse of carbon dioxide was introduced into the test cage containing fifty Anopheles gambiae (Giles) ss strain 16CSS female mosquitoes that were 4-11 days old and the number of mosquito landings on the warm body occurring within a 2-minute period was counted. Each candidate compound was tested in five different cages (i.e., 250 female mosquitoes) in a randomized design, and the ethanol control and up to four candidate compounds were tested in each cage. Raw data on numbers of landings by mosquitoes were analyzed using a linear mixed model accounting for treatment, experimental day, the individual cage, the number of females per cage and the level of the carbon dioxide pulse in ppm using R (R Development Core Team, 2010) and the packages LME4 (Bates and Maechler, Ime4: Linear mixed-effects models using {S4} classes.{R} package version 0.999375-32, 2009) and NLME (Pinheiro et al, nlme: Linear and Nonlinear Mixed Effects Models, 2010; the R Development Core Team, R: A Language and Environment for Statistical Computing, 2010). Repellent values were calculated from counted landings on treatments versus the overall landings on pooled controls.
To test the behavior of female mosquitoes to a candidate compound identified in Example 5, behavioral assays were made using the identified compounds. The repellent assay was performed as described in Example 3, except that candidate compounds were dissolved in ethanol and tested initially at doses between 1.0 and 5.0 μg/cm^2 (about 5-31.5 nmole/cm^2) and, whenever necessary, at lower and/or higher doses as well. Besides the compounds identified in Example 5, compounds related to these were also tested including ethyl-cinnamate and butyl-cinnamate (Table 4).
To test the behavior of female mosquitoes to various combinations of candidate compounds identified in Example 6, repellence assays were made as in Example 3. These repellent assays were made to compare the effectiveness of the strongest repellent compounds identified in Example 6, including, without limitation, carvacrol, ethyl cinnamate, butyl cinnamate, and cumin alcohol with that of DEET.
The doses tested were 2, 4, 6 10 and 20 nmol/cm^2 for the single compounds. The binary 50:50 mixtures were tested at 2, 6, 10 and 20 nmol/cm^2, with each compound making up half the amount tested, so that, for example, the 2 nmol/cm^2 concentration in column A+B represents 1 nmol/cm^2 of A and 1 nmol/cm^2 of B in a binary mixture. DEET was also tested at 25 nmol (top response) and carvacrol was tested at the additional dose of 2.5 nmol (second from left within its column). As an indication, DEET at 20 nmol/cm^2=3.8 μg/cm^2. Mosquitoes were activated using a puff of CO2 from a gas tank upon introduction of the warm body into the test cage containing 50±5 A. gambiae females and mosquito landings were counted for 2 minutes. Each treatment (dose) was tested using five test cages, i.e. on a total of 250 female A. gambiae. […]

Anopheles gambiae s.l. = assay: experimental hut field trial of spatial repellence, Anopheles; conditions: single compound, 1 ml in open vial in MM-X trap, per night
Method: (§1) To test the effects of repellent compounds or compositions disclosed herein on mosquitoes in a controlled environment resembling actual living quarters and conditions, field trials with standardized experimental huts were conducted at Kainji Dam in North Central Nigeria.
(§2) Six such huts were built in a straight line, and the distance between huts was 11 meters. These huts follow a traditional square design, the walls are built with concrete blocks that are subsequently plastered with cement, each wall has a window. The ceiling is plywood and the roof is thatched with eaves that are open, thereby allowing free flow of air into and out of the hut, and thus entry and exit of mosquitoes. There is a door for entry and exit. Two opposing sides of each hut have window exit traps and screened verandas to capture mosquitoes leaving via the windows or eaves. Each hut is raised off the ground on a concrete platform and surrounded by a moat filled with water in order to prevent ants from entering. Each hut is fitted with a mattress and an untreated bed net for sleepers. These huts are similar in design and concept to those used previously elsewhere for studying mosquito behavior and measuring the efficacy of various mosquito control products or intervention methods in Tanzania and Gambia. For design parameters refer to WHOPES 2005. The huts are adjacent to a tributary of the River Niger at a distance of 10 km from the Kainji Dam site and face rice fields known to harbor permanent mosquito breeding sites. The mosquitoes endemic to this area of Nigeria are highly endophillic, that is, they rest mainly indoors.
(§3) Human volunteers that participated as sleepers in this field trial were provided with anti-malarial chemical prophylaxis on a weekly basis, and the protocols used herein were reviewed and approved by the Research Ethics Review Committee of the Nigerian Institute of Medical Research. Six male adult volunteers, aged between 25 and 35 years old, were recruited to sleep in the huts described above. Sleepers were allocated to huts randomly for each series of trials, and this randomization process occurred nightly. The volunteers entered the huts by 21:00 each night and remained inside the huts until 06:30 the following morning. Each morning, the windows were closed and the exit traps blocked with a piece of cloth to prevent mosquitoes that entered from exiting. The traps were then put in a freezer at −20° C. to kill all the mosquitoes before being emptied for identification. By means of a sucking aspirator the verandas and rooms were visually searched for live mosquitoes and any insects found were collected in labelled cups. A 10-minute search was conducted for each hut (room and veranda traps). The exit traps were emptied into a labelled cup and all the mosquitoes placed in the freezer at −20° C. for about 30 minutes before morphological identification.
(§4) The Mosquito Magnet trap Model-X (MM-X trap made by the firm formerly known as American Biophysics (ABC), USA) is a 12V battery operated counter-flow trap that was used as the repellent dispersing device to evaluate the efficacy of repellent compounds or compositions disclosed herein. Four compounds, carvacrol, cumin alcohol, ethyl cinnamate, and butyl cinnamate, were evaluated in comparison to DEET as a nonproprietary conventional repellent in a first experiment. The chemical compounds were provided in liquid form: carvacrol (98%), butyl cinnamate (98%), ethyl cinnamate (98%), cumin alcohol (97%) and DEET (97%). […]

Culex spp. = assay: experimental hut field trial of spatial repellence, Culex; conditions: single compound, 1 ml in open vial in MM-X trap, per night
Method: as §1, §2, §3, §4

[2] = system: sand fly Lutzomyia longipalpis; assay: warm body repellence assay with sand flies; conditions: 2 minutes, control 48
Method: To test the effects of repellent compounds or compositions disclosed herein on other blood-feeding arthropods, a warm body repellence assay (Krober et. al. (2010). An In Vitro Assay for Testing Mosquito Repellents Employing a Warm Body and Carbon Dioxide as a Behavioral Activator. Journal of the American Mosquito Control Association 26(4): 381-386] was conducted using the sand fly Lutzomyia longipalpis (Diptera: Psychodidae), the principal vector of Leishmania (or leismaniasis) in the Americas.
[…] Fifty L. longipalpis sandflies (male:female ratio 1:1) of 3-7 days old were tested during the scotophase under conditions described for A. gambiae in Example 6. The test cages were lined with filter paper. Reduction in the number of landings by L. longipalpis sand fly females on a warm body treated with different test products compared to the control with solvent (ethanol p.a.) alone was used to evaluate repellence. Tests were conducted in complete darkness using IR LEDs to illuminate the warm body. Landings counted during 2 minutes were normalized by experimental day, cage, and number of females by a mixed linear model before testing for differences.

[3] = 2 nmol (per cm^2, total for mixtures, 50:50)
[4] = 4 nmol (per cm^2, total for mixtures, 50:50)
[5] = 6 nmol (per cm^2, total for mixtures, 50:50)
[6] = 20 nmol (per cm^2, total for mixtures, 50:50)

| SMILES | Median repellence % [1, 3] [%] | Median repellence % [1, 4] [%] | Median repellence % [1, 5] [%] | Median repellence % ([1]; 10 nmol (per cm^2, total for mixtures, 50:50)) [%] | Median repellence % [1, 6] [%] | median repellency (%) at 20 nmol/cm2 [1] [%] | spatial repellent effect, induced exophily (in words) (Anopheles gambiae s.l.) | spatial repellent effect, induced exophily (in words) (Culex spp.) | Median of landings ([2]; 20 nmol/cm^2) | Median of landings ([2]; 200 nmol/cm^2) |
| --- | --- | --- | --- | --- | --- | --- | --- | --- | --- | --- |
| CCCCOC(=O)C=Cc1ccccc1 [butyl-cinnamate, butyl 3-phenylprop-2-enoate] | −1 | 28 | 61 | 68 | 89 | 88.7 | significantly lower than that of DEET | significantly lower than that of DEET | 49 | 40 |
| CCOC(=O)C=Cc1ccccc1 [(E)-ethyl-cinnamate, ethyl 3-phenylprop-2-enoate] | −18 | 18 | 35 |  | 83 | 82.8 | significantly lower than that of DEET | significantly lower than that of DEET |  |  |
